Experimental data reported in patent EP3390415B1, “(R)- AND (S)-1-(3-(3-N,N-DIMETHYLAMINOCARBONYL)PHENOXYL-4-NITROPHENYL)-1-ETHYL-N,N'-BIS (ETHYLENE)PHOSPHORAMIDATE, COMPOSITIONS AND METHODS FOR THEIR USE AND PREPARATION” (OBI PHARMA, INC., priority 2015, dated 2017).
Like-named read-outs stand apart in the source and are kept apart here.

Columns and labels:
[1] = tested on: COLO680N; assay: In vitro human tumor cell line cytotoxicity assay; format: cell-based; settings: COLO-680N, read-out: RelIC50
[2] = Acute toxicity study in monkeys, body weight; format: in vivo, Cynomolgus monkeys; parameters: unit not given here; settings: 2 mg/kg IV infusion
Method: (§1) TH 3423 and TH 3424 were tested in no naive monkeys (1 male and one female for each compound at 2 mg/kg) with 30-min intravenous infusion, TK sampling: on Day 1 and Day 15: 0.25, 0.5, 0.75, 1 and 2 hr post infusion initiation. Serum chemistry and hematology: pre-dose (Day 1), day 5, day 8 (pre-dose), day 15 (pre-dose), day 22 and day 28. Clinical observation: Daily during the study, total 35 days. Food consumption: Daily during the study, total 35 days. Bodyweight measurement: Twice weekly for five weeks.

[3] = tested on: KYSE; assay: In vitro human tumor cell line cytotoxicity assay; format: cell-based; settings: read-out: RelIC50
[4] = tested on: TF-1; assay: In vitro human tumor cell line cytotoxicity assay; format: cell-based; settings: read-out: RelIC50
[5] = tested on: TALL-1; assay: In vitro human tumor cell line cytotoxicity assay; format: cell-based; settings: read-out: RelIC50
[6] = tested on: ECa-109; assay: In vitro human tumor cell line cytotoxicity assay; format: cell-based; settings: read-out: RelIC50
[7] = Pharmacokinetics (TK) after 30-min IV infusion in monkeys; format: in vivo, Cynomolgus monkeys; settings: 2 mg/kg 30-min IV infusion; for MRT inf / clearance / half-life / Vd / concentration at 0.25 hr / concentration at 0.5 hr / concentration at 0.75 hr / concentration at 1 hr / concentration at 2 hr: cynomolgus monkey, plasma; for half-life: read-out: Terminal t1/2 (converted); for Vd: read-out: Vss
Method: as §1

[8] = tested on: HepG2; assay: In vitro human tumor cell line cytotoxicity assay; format: cell-based; settings: for IC50: Homo sapiens
[9] = tested on: KYSE 70; assay: In vitro human tumor cell line cytotoxicity assay; format: cell-based; settings: read-out: RelIC50
[10] = tested on: GR-ST; assay: In vitro human tumor cell line cytotoxicity assay; format: cell-based; settings: read-out: RelIC50
[11] = tested on: EC-GI-10; assay: In vitro human tumor cell line cytotoxicity assay; format: cell-based; settings: read-out: RelIC50
[12] = tested on: OE 21; assay: In vitro human tumor cell line cytotoxicity assay; format: cell-based; settings: OE21, read-out: RelIC50
[13] = tested on: HEL; assay: In vitro human tumor cell line cytotoxicity assay; format: cell-based; settings: read-out: RelIC50
[14] = tested on: TE-14; assay: In vitro human tumor cell line cytotoxicity assay; format: cell-based; settings: read-out: RelIC50
[15] = tested on: TE-4; assay: In vitro human tumor cell line cytotoxicity assay; format: cell-based; settings: read-out: RelIC50
[16] = tested on: KG-1; assay: In vitro human tumor cell line cytotoxicity assay; format: cell-based; settings: read-out: RelIC50
[17] = tested on: C3A; assay: In vitro human tumor cell line cytotoxicity assay; format: cell-based; settings: for IC50: Homo sapiens
[18] = tested on: K-562; assay: In vitro human tumor cell line cytotoxicity assay; format: cell-based; settings: K562, read-out: RelIC50
[19] = tested on: P30/OHK; assay: In vitro human tumor cell line cytotoxicity assay; format: cell-based; settings: read-out: RelIC50
[20] = tested on: HL-60 Clone; assay: In vitro human tumor cell line cytotoxicity assay; format: cell-based; settings: read-out: RelIC50
[21] = tested on: NOMO-1; assay: In vitro human tumor cell line cytotoxicity assay; format: cell-based; settings: read-out: RelIC50
[22] = tested on: HCCC9810; assay: In vitro human tumor cell line cytotoxicity assay; format: cell-based; settings: for IC50: Homo sapiens
[23] = tested on: KYSE 180; assay: In vitro human tumor cell line cytotoxicity assay; format: cell-based; settings: read-out: RelIC50
[24] = tested on: Jurkat; assay: In vitro human tumor cell line cytotoxicity assay; format: cell-based; settings: read-out: RelIC50
[25] = both sexes, mean, read-out: Plasma concentration, Mean
[26] = female, read-out: Plasma concentration
[27] = male, read-out: Plasma concentration

C[C@H](OP(=O)(N1CC1)N1CC1)c1ccc([N+](=O)[O-])c(Oc2cccc(C(=O)N(C)C)c2)c1 (single isomer, unassigned) [TH3424]
IC50 [1]: 66 nM | body weight ([2]; Mean, Day 1): 3.34 | body weight ([2]; Mean, Day 4): 3.26 | body weight ([2]; Mean, Day 8): 3.20 | body weight ([2]; Mean, Day 11): 3.06 | body weight ([2]; female, Day 1): 3.28 | body weight ([2]; female, Day 4): 3.22 | body weight ([2]; female, Day 8): 3.08 | body weight ([2]; female, Day 11): 2.94 | body weight ([2]; male, Day 1): 3.40 | body weight ([2]; male, Day 4): 3.30 | body weight ([2]; male, Day 8): 3.31 | body weight ([2]; male, Day 11): 3.17 | IC50 [3]: 11 nM | IC50 [4]: 28 nM | IC50 [5]: 30 nM | IC50 [6]: 17 nM | AUCINF ([7]; Mean): 1461 hr^∗ng/mL | AUClast ([7]; Mean): 1459 hr^∗ng/mL | MRT inf ([7]; both sexes, Mean): 13.9 min | clearance ([7]; both sexes, Mean): 23.7 mL/min/kg | half-life ([7]; both sexes, Mean): 10.9 min | Vd ([7]; both sexes, Mean): 0.325 L/kg | concentration at 0.25 hr [7, 25]: 2160 ng/mL | concentration at 0.5 hr [7, 25]: 2400 ng/mL | concentration at 0.75 hr [7, 25]: 794 ng/mL | concentration at 1 hr [7, 25]: 185 ng/mL | concentration at 2 hr [7, 25]: 5.64 ng/mL | concentration at 0.25 hr [7, 26]: 1850 ng/mL | concentration at 0.5 hr [7, 26]: 2090 ng/mL | concentration at 0.75 hr [7, 26]: 557 ng/mL | concentration at 1 hr [7, 26]: 110 ng/mL | concentration at 2 hr [7, 26]: 3.84 ng/mL | MRT inf ([7]; female): 12.9 min | clearance ([7]; female): 27.8 mL/min/kg | half-life ([7]; female): 10.9 min | Vd ([7]; female): 0.36 L/kg | concentration at 0.25 hr [7, 27]: 2480 ng/mL | concentration at 0.5 hr [7, 27]: 2720 ng/mL | concentration at 0.75 hr [7, 27]: 1030 ng/mL | concentration at 1 hr [7, 27]: 260 ng/mL | concentration at 2 hr [7, 27]: 7.43 ng/mL | MRT inf ([7]; male): 15 min | clearance ([7]; male): 19.3 mL/min/kg | half-life ([7]; male): 10.9 min | Vd ([7]; male): 0.289 L/kg | AUCINF ([7]; female): 1196 hr^∗ng/mL | AUClast ([7]; female): 1195 hr^∗ng/mL | AUCINF ([7]; male): 1726 hr^∗ng/mL | AUClast ([7]; male): 1724 hr^∗ng/mL | Max Inhibition% [8]: 100.2% | Min Inhibition% [8]: 3.4% | IC50 ([8]; read-out: AbsIC50): 8.6 nM | IC50 ([8]; read-out: RelIC50): 7.3 nM | IC50 [9]: 33 nM | IC50 [10]: 99 nM | IC50 [11]: 13 nM | IC50 [12]: 5.2 nM | IC50 [13]: 224 nM | IC50 [14]: 4.7 nM | IC50 [15]: 9.9 nM | IC50 [16]: 15.3 nM | Max Inhibition% [17]: 98.7% | Min Inhibition% [17]: -2.1% | IC50 ([17]; read-out: AbsIC50): 9.3 nM | IC50 ([17]; read-out: RelIC50): 4.1 nM | IC50 [18]: > 1000 nM | IC50 [19]: > 1000 nM | IC50 [20]: 52.6 nM | IC50 [21]: 11 nM | Max Inhibition% [22]: 95.4% | Min Inhibition% [22]: 2.1% | IC50 ([22]; read-out: AbsIC50): 13.9 nM | IC50 ([22]; read-out: RelIC50): 13.4 nM | IC50 [23]: 450 nM | IC50 [24]: 40 nM
